Test results reported in patent US20090111177A1, “Maintenance of Embryonic Stem Cells by the GSK-3 Inhibitor 6-Bromoindirubin-3'-Oxime” (THE ROCKEFELLER UNIVERSITY, priority 2003, published 2009).

Key:
HESCs (H1, BGN1) = test: Feeder-free culture of HESCs, undifferentiated morphology; assay type: cell-based, human; details: for morphology / undifferentiated phenotype of HESCs: feeder-free, non-conditioned medium, 6-bromoindirubin-3′-oxime and Me analogue 2 μM, LiCl 5 mM, Wnt3a protein
Protocol: (§1) Cell culture. Human embryonic stem cells (HESCs) lines were provided by WiCell Research Institute (H1 line)^5 and BresaGen Inc. (BGN1 and BGN2 lines). H1 cells were cultivated on irradiated mouse embryonic fibroblasts (MEFs) in medium consisting of 80% DMEM/F12 medium, 20% knockout serum replacement (KSR), 1 mM L-glutamine, 1% non-essential amino acids, 0.1 mM β-mercaptoethanol, and 4 ng/ml basic FGF (all from Invitrogen). […] Subsequently, HESCs were cultured on Matrigel (BD biosciences) in medium conditioned by MEFs, and passaged several times until colonies became free from contaminating MEFs as described before^9.

Rex-1 promoter [1] = test: Rex-1 YFP reporter line CJRex-Y (imaging / FACS); assay type: cell-based, mouse; details: CJRex-Y cells, 5 d
Protocol: Generation of stable mouse ES lines. CJ7 ES cells were transfected with pRex-1-Venus, pTY or pCAG-HygEGFP by using Lipofectamine 2000 (Invitrogen) followed by G418 (Invitrogen) selection at 200 μg/ml (for CJRex-Y or CJ-TY) or hygromycine (Invitrogen) selection at 600 μg/ml (for CJ-GFP). Two weeks after the drug selection, a number of single colonies were picked up, expanded and used for the further analyses.
FACS analysis of MESCs. We cultured CJRex-Y cells at a low density (500 cells/cm^2) on gelatin-coated 10 cm dishes in mouse ES cell medium alone, medium containing LIF, medium conditioned from wild type L cells or medium conditioned from Wnt3a-L cells (ATCC) for 5 days. The Wnt3a conditioned medium was prepared according to the provider's protocol. Cells were harvested, resuspended in mouse ES medium and subjected to FACS analysis using FACSVantage SE system (BD Biosciences).

Oct-3/4 = Oct-3/4 immunocytochemistry in HESCs; assay type: cell-based, human; details: HESCs in non-conditioned medium; FIG. 4c
Protocol: as §1
Immunofluorescence. Cells were fixed in 4% paraformaldehyde for 20 min at room temperature and incubated overnight at 4° C. with primary antibodies against Oct-4 (BD Biosciences), β-catenin (BD Biosciences), Tuj-1 (BAbCO), cytokeratin (Sigma), glial fibrillary acidic protein, GFAP, (Dako), smooth muscle actin (Research Diagnostics Inc), α-fetoprotein (α-FP, Cell Sciences) and Tromal (Developmental Studies Hybridoma Bank). For nuclear localization analysis, the fixed samples were subjected to fluorescent digital confocal imaging analysis using a Zeiss LSM 510 confocal microscope (Carl Zeiss). For mouse embryonic tissue sections, mid gestation embryos were fixed in 4% paraformaldehyde followed by paraffin embedding and tissue sectioning. After deparaffinization, tissue sections were incubated with a GFP-specific antibody (Molecular Probe) at 4° C. overnight. Antigens were localized by using goat anti-mouse IgG conjugated to Cy3 or goat anti-rabbit IgG conjugated to Cy2 (Zymed laboratories). For the quantitative image analysis, fluorescent images from triplicate samples were taken by the Discovery1 system (Universal Imaging Corporation). The fluorescent objects were selected by the threshold function and evaluated in five regions of each well by quantification of pixel intensities and the object size by using MetaMorph software (Universal Imaging Corporation).

CJ-GFP cells (MESCs) = test: Low-density culture of CJ-GFP MESCs without LIF, morphology; assay type: cell-based, mouse; details: 1 μM; 7 d plus 5 d at low density; data not shown for Me analogue
Protocol: Teratoma formation. We grew CJ-GFP cells at a low density (500 cells/cm^2) on gelatin-coated 10 cm dishes in medium containing 6-bromoindirubin-3′-oxime 1 μM for 7 d, then passaged cells at the same density and cultured under the same condition another 5 d to further enforce differentiation of cells.

GSK-3 = details: from reference 10; cited from earlier work
[2] = tested on: canonical Wnt pathway (TCF binding sites, TopFlash); test: TopFlash/FopFlash luciferase reporter assay in CJ7 cells (MESCs); assay type: cell-based, mouse; details: CJ7 cells (MESCs); FIG. 2b
Protocol: (§2) Luciferase assay. […] Test compounds were added 24 hrs after transfection. Following incubation for 24 hrs, cells were harvested, and analyzed by the dual luciferase reporter assay system (Promega) using Lumat (Berthold Technologies). Each value was standardized by Renilla luciferase activity.
The canonical Wnt signal occurs through binding of the Wnt protein to the Frizzled receptor at cell surface. It is followed by inactivation of GSK-3, leading to accumulation of β-catenin in the nucleus that activates the transcription of Wnt target genes in collaboration with TCFs^18,19. Alternatively, Wnt signaling can be activated by direct, intracellular inhibition of the GSK-3 function using specific inhibitors^20. […] First we examined whether mouse and human ESCs were capable of transducing Wnt signaling under the influence of 6-bromoindirubin-3′-oxime. […] We then evaluated expression of β-catenin at the cellular level as a read-out of the activation status of the canonical Wnt pathway in HESCs.

Rex-1 promoter [3] = test: Rex-1 luciferase reporter assay in CJ7 cells; assay type: cell-based, mouse; details: CJ7 cells; compared to LIF-treated cells
From the text: Nat Biotechnol 20, 87-90), a small fragment containing the TCF binding sites and the cFos promoter in pTopFlash was excised by XbaI digestion, and cloned into pcDNA3-Venus in which Venus was introduced into the multiple cloning site between BamHI and EcoRI of the pcDNA3 vector (Invitrogen) whose CMV promoter was eliminated by BglII and HindIII digestion. […] To generate the Rex-1-Venus reporter construct, the Rex-1 promoter region was cloned into pcDNA3-Venus.
as §2

β-catenin = β-catenin immunofluorescence confocal analysis in HESCs; assay type: cell-based, human; details: compared to non-conditioned medium treated cells, FIG. 2c
Protocol: as §1
Immunofluorescence. […] For the quantitative image analysis, fluorescent images from triplicate samples were taken by the Discovery1 system (Universal Imaging Corporation). The fluorescent objects were selected by the threshold function and evaluated in five regions of each well by quantification of pixel intensities and the object size by using MetaMorph software (Universal Imaging Corporation).

cyclin D1 = cyclin D1 immunofluorescence in HESCs; assay type: cell-based, human; details: HESCs (BGN2); non-CM; 6-bromoindirubin-3′-oxime 1.0 μM or Wnt3a protein 100 ng; FIG. 7
Protocol: Immunofluorescence. HESCs were grown in conditioned medium (CM), non-CM, non-CM containing Me 6-bromoindirubin-3′-oxime (1.0 μM), non-CM containing 6-bromoindirubin-3′-oxime (1.0 μM) or non-CM containing recombinant mouse Wnt3a protein (100 ng/ml, R&D systems) for 5 d. Cells were fixed in 4% paraformaldehyde for 20 min at room temperature and incubated overnight at 4° C. with primary antibodies against cyclin D1 (Santa Cruz Technology, Santa Cruz, Calif.). Antigens were localized by using goat anti-rabbit IgG conjugated to Cy3 (Zymed laboratories).

**Q.** With [Cl-].[Li+] [LiCl, reference compound] as the molecule, how does the “toxicity to HESCs” value (HESCs (H1, BGN1); 10 mM, FIG. 4c) read?
**A.** Its value is “substantial toxicity”.

**Q.** And the “morphology / undifferentiated phenotype of HESCs” value (HESCs (H1, BGN1); 7 d)?
**A.** The value was “failed to maintain the undifferentiated phenotype”.

**Q.** What does the source list for CN1C(=O)C(=C2Nc3ccccc3C2=NO)c2ccc(Br)cc21 [Me 6-bromoindirubin-3′-oxime, 1-methyl-6-bromoindirubin-3′-oxime, reference compound]?
**A.** colony morphology / cell shape (Rex-1 promoter [1]; FIG. 3b): flattened cell shape; Rex-1 transcriptional (YFP reporter) activity (Rex-1 promoter [1]; absence of LIF): substantially lower activity; Oct-3/4 expression at the cellular level (Oct-3/4): remarkable reduction of Oct-3/4 expression; colony morphology of MESCs without LIF (CJ-GFP cells (MESCs)): large flat differentiated morphology; GSK-3 / kinase inhibition (GSK-3): kinase-inactive; TopFlash reporter activity [2]: did not show any change in activity; Rex-1 promoter activity (Rex-1 promoter [3]): slightly reduced; nuclear accumulation of β-catenin (β-catenin): did not show obvious difference; morphology / undifferentiated phenotype of HESCs (HESCs (H1, BGN1); 7 d): fully flattened morphology

**Q.** Which “prevention of HESC differentiation in non-conditioned medium” value (HESCs (H1, BGN1); LIF up to 2,000 to 3,000 U/ml, 7 d) does the source give for Human-derived LIF: Human-derived LIF here?
**A.** The value was “failed to prevent the differentiation”.

**Q.** For Wnt3a, which “cyclin D1 expression” value (cyclin D1) is on record?
**A.** Its value is “up-regulated cyclin D1 expression”.

**Q.** And the “Oct-3/4 expression at the cellular level” value (Oct-3/4)?
**A.** The value was “high level of Oct-3/4 expression”.

**Q.** What about the “morphology / undifferentiated phenotype of HESCs” value (HESCs (H1, BGN1); 7 d) of the same molecule?
**A.** Its value is “maintain compact undifferentiated colonies”.
